Where a name gives a salt, the structure may show the parent alone.
Columns and labels:
human RORγt LBD = target: T1, human RORγt LBD (Homo sapiens, UniProt P51449); assay: RORγt reporter assay (GAL4-RORγt LBD luciferase in HEK293T cells); assay type: cell-based; conditions: for IC50: 24 hours compound treatment; for inhibition at 6 µM: HEK-293T
T1 construct: expressed in transfected cells
T1 sequence (P51449 258-518): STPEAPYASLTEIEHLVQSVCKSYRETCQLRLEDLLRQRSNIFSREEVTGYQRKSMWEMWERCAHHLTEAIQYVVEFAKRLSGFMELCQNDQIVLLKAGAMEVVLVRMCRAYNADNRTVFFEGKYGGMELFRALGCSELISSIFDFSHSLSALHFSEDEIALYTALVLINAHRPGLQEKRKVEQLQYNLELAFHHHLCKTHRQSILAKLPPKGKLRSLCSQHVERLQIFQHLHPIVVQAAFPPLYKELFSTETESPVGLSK
Text: A reporter assay was used to test functional activity of RORγt modulatory compounds on transcriptional activation driven by the RORγt LBD. Cells used in the assay were co-transfected with two constructs. The first construct, pBIND-RORγt LBD, contained the wild type human RORγt LBD fused to the DNA binding domain of the GAL4 protein. The second construct, pGL4.31 (Promega Cat no. C935A), contained multiple GAL4 responsive DNA elements upstream of firefly luciferase. […] The mutant construct was called pBIND-RORγt-AF2.
The pBIND vector contains the GAL4 DNA Binding Domain (GAL4 DBD) and the renilla luciferase gene under control of the SV40 promoter. Renilla luciferase expression serves as a control for transfection efficiency and cell viability.
The reporter assay was performed by transiently transfecting HEK293T cells with 5 µg of pBIND-RORγt LBD or pBIND-RORγt LBD-AF2 and 5 µg pGL4.31 (Promega Cat no. C935A) using Fugene 6 (Invitrogen Cat no. E2691) at a 1:6 ratio of DNA: Fugene 6 in a T-75 flask in which cells were at least 80% confluent. Twenty four hours after bulk transfection, cells were plated into 96-well plates at 50,000 cells/well in phenol-red free DMEM containing 5% Lipid Reduced FCS and Pen/Strep. Six hours after plating, cells were treated with compounds for 24 hours. Media was removed and cells were lysed with 50 µL 1x Glo Lysis Buffer (Promega). Dual Glo Luciferase Reagent (50 µL/well) was then added and firefly luciferase luminescence was read on an Envision after a ten minute incubation. Finally, Stop and Glo reagent (50 µL/well) was added and renilla luciferase luminescence was read on an Envision after a ten minute incubation. To calculate the effect of compounds on RORγt activity, the ratio of firefly to renilla luciferase was determined and plotted against compound concentration. Agonist compounds increase RORγt-driven luciferase expression, and antagonist or inverse agonist compounds decrease luciferase expression.

[1] = target: T2, human RORγt ligand binding domain (RORγt LBD) (Homo sapiens, UniProt P51449); assay: RORγt ThermoFluor assay (thermal shift binding affinity); conditions: 0.065 mg/mL RORγt, pH 7.0; estimated from thermal shift
T2 construct: made in house; host or cells: E. coli (pHIS1, modified pET vector)
T2 sequence (P51449 258-518): T1 sequence (P51449 258-518)
Method: This approach is applicable to a wide variety of systems, and rigorous in theoretical interpretation through quantitation of equilibrium binding constants (KD).
The shift in the melting point described as a ΔTm is proportional to the concentration and affinity of the ligand. The compound potency may be compared as a rank order of either ΔTm values at a single compound concentration or in terms of KD values, estimated from concentration response curves.
ThermoFluor® experiments were carried out using instruments owned by Janssen Research and Discovery, L.L.C. through its acquisition of 3-Dimensional Pharmaceuticals, Inc. 1,8-ANS (Invitrogen) was used as a fluorescent dye. Protein and compound solutions are dispensed into black 384-well polypropylene PCR microplates (Abgene) and overlayed with silicone oil (1 µL, Fluka, type DC 200) to prevent evaporation.
Bar-coded assay plates are robotically loaded onto a thermostatically controlled PCR-type thermal block and then heated at a typical ramp-rate of 1 °C/min for all experiments. Fluorescence was measured by continuous illumination with UV light (Hamamatsu LC6) supplied via fiber optic and filtered through a band-pass filter (380-400 nm; >6 OD cutoff). Fluorescence emission of the entire 384-well plate was detected by measuring light intensity using a CCD camera (Sensys, Roper Scientific) filtered to detect 500 ± 25 nm, resulting in simultaneous and independent readings of all 384 wells. Images were collected at each temperature, and the sum of the pixel intensity in a given area of the assay plate was recorded versus temperature. Reference wells contained RORγt without compounds, and the assay conditions were as follows: • 0.065 mg/mL RORyt • 60 µM 1,8-ANS • 100 mM Hepes, pH 7.0 • 10 mM NaCl • 2.5 mM GSH • 0.002% Tween-20
Project compounds were arranged in a pre-dosed mother plate (Greiner Bio-one) wherein compounds are serially diluted in 100% DMSO by 1:2 from a high concentration of 10 mM over 12 columns within a series (column 12 is a reference well containing DMSO, no compound). The compounds were robotically dispensed directly into assay plates (1x = 46 nL) using a Hummingbird capillary liquid handling instrument (Digilab). Following compound dispense, protein and dye in buffer was added to achieve the final assay volume of 3 µL, followed by 1 µL of silicone oil.

[2] = tested on: IL-17 production by CD4 T cells; assay: Human Th17 assay (IL-17 production by CD4 T cells); assay type: cell-based; conditions: CD4+ T cells from healthy donors, Th17 differentiation, 3 days
Text: The human Th17 assay tests the effect of RORγt modulatory compounds on IL-17 production by CD4 T cells under conditions which favor Th17 differentiation. Total CD4^+ T cells were isolated from the peripheral blood mononuclear cells (PBMC) of healthy donors using a CD4^+ T cell isolation kit II, following the manufacturer's instructions (Miltenyi Biotec). Cells were resuspended in a medium of RPMI-1640 supplemented with 10% fetal bovine serum, penicillin, streptomycin, […], and β-mercaptoethanol and were added to 96-well plates at 1.5x10^5 per 100 µL per well. 50 µL of compound at titrated concentrations in DMSO were added into each well at final DMSO concentration at 0.2%. Cells were incubated for 1 hour, then 50 µL of Th17 cell differentiation medium was added to each well. The final concentrations of antibodies and cytokines (R&D Systems) in differentiation medium were: 3x10^6/mL anti-CD3/CD28 beads (prepared using human T cell activation/expansion kit, Miltenyi Biotec), 10 µg/mL anti-IL4, 10 µg/mL anti-IFNγ, 10 ng/mL IL1β, 10 ng/mL IL23, 50 ng/mL IL6, 3 ng/mL TGFβ and 20 U/mL IL2. Cells were cultured at 37 °C and 5% CO2 for 3 days. Supernatants were collected and the accumulated IL-17 in culture was measured by using MULTI-SPOT® Cytokine Plate following manufacture's instruction (Meso Scale Discovery). The plate was read using Sector Imager 6000, and IL-17 concentration was extrapolated from the standard curve. The IC50s were determined by GraphPad.

| IC50 (human RORγt LBD) [nM] | inhibition at 6 µM (human RORγt LBD) [%] | Kd [1] [nM] | SMILES | IC50 ([2]; Homo sapiens, 72 h) [nM] | IC50 ([2]; Homo sapiens, CD4+ T, 72 h) [nM] | IC50 [2] [nM] |
| --- | --- | --- | --- | --- | --- | --- |
| – | 72 | – | CC(C)(C)OC(=O)N(c1ccccc1)c1c(Cl)nc2ccc(C(O)(c3cccnc3)c3cccc(Cl)c3)cc2c1Cl (stereo not shown) [Example 7, tert-Butyl (2,4-dichloro-6-((3-chlorophenyl)(hydroxy)(pyridin-3-yl)methyl)quinolin-3-yl)(phenyl)carbamate] | – | – | – |
| > 6000 | 41 | 11000 | CC(C)OC1CN(c2nc3ccc(C(O)(c4ccc(C(F)(F)F)nc4)c4cncn4C)cc3c(Cl)c2Oc2ccc(Cl)cc2)C1 (stereo not shown) [Example 6, (4-Chloro-3-(4-chlorophenoxy)-2-(3-isopropoxyazetidin-1-yl)quinolin-6-yl)(1-methyl-1H-imidazol-5-yl)(6-(trifluoromethyl)pyridin-3-yl)methanol] | – | – | – |
| 270 | – | > 63000 | CCN(CC)c1nc2ccc(C(O)(c3ccccn3)c3cncn3C)cc2c(C#N)c1Oc1ccccc1 (single isomer, unassigned) [Example 5c] | 150 | – | – |
| 870 | 102 | – | CCN(CC)c1nc2ccc(C(O)(c3ccccn3)c3cncn3C)cc2c(C#N)c1Oc1ccccc1 (stereo not shown) [Example 5b] | – | – | – |

Second part, the compound before the results:

| SMILES | IC50 (human RORγt LBD) [nM] | inhibition at 6 µM (human RORγt LBD) [%] | Kd [1] [nM] | IC50 ([2]; Homo sapiens, 72 h) [nM] | IC50 ([2]; Homo sapiens, CD4+ T, 72 h) [nM] | IC50 [2] [nM] |
| --- | --- | --- | --- | --- | --- | --- |
| Cn1cncc1C(O)(c1ccc(Cl)cc1)c1ccc2nc(N3CCC3=O)c(Oc3ccc(C#N)cc3)c(Cl)c2c1 (stereo not shown) [Example 1, 4-((4-chloro-6-((4-chlorophenyl)(hydroxy)(1-methyl-1H-imidazol-5-yl)methyl)-2-(2-oxoazetidin-1-yl)quinofin-3-yl)oxy)benzonitrile · TFA] | 180 | 101 | 58 | 300 | – | – |
| Cn1cncc1C(O)(c1ccc(C(F)(F)F)nc1)c1ccc2nc(N3CCCC3)c(Oc3ccc(C#N)cc3)c(Cl)c2c1 (racemic) [Example 2a, 4-((4-Chloro-6-(hydroxy(1-methyl-1H-imidazol-5-yl)(6-(trifluoromethyl)pyridin-3-yl)methyl)-2-(pyrrolidin-1-yl)quinolin-3-yl)oxy)benzonitrile] | – | – | – | – | 88 | – |
| Cn1cncc1C(O)(c1ccc(C(F)(F)F)nc1)c1ccc2nc(N3CCCC3)c(Oc3ccc(C#N)cc3)c(Cl)c2c1 (stereo not shown) [Example 2b] | – | – | – | – | – | 320 |
| CCN(CC)c1nc2ccc(C(O)(c3ccccn3)c3cncn3C)cc2c(Cl)c1Oc1ccccc1 (stereo not shown) [Example 3c] | 1100 | – | 460 | – | – | – |
| CCN(CC)c1nc2ccc(C(O)(c3ccccn3)c3cncn3C)cc2c(Cl)c1Oc1ccccc1 (stereo not shown) [Example 3b] | 200 | 101 | 140 | 180 | – | – |
| Cn1cncc1C(O)(c1ccc(C(F)(F)F)nc1)c1ccc2nc(N3CCCC3)c(Oc3ccc(C#N)cc3)c(Cl)c2c1 (stereo not shown) [Example 2c] | – | – | – | – | – | 100 |

— EP3083561B1, “HETEROARYL LINKED QUINOLINYL MODULATORS OF RORYT” (Janssen Pharmaceutica NV, priority 2013, dated 2015)
